The test system of one data set is HT29. Nature of the data set: MTT cytotoxicity, HT29. It is filed as cell-based, human. As to conditions: 48 h incubation, read-out: Cytotoxic effect, IC50. The method, then:
(§1) Cytotoxicity was evaluated against fifteen adherent human cancer cell lines using the MTT test: colorectal adenocarcinoma cells Caco2 (ATCC® HTB-37™), colorectal adenocarcinoma cells HT29 (ATCC® HTB-38™), colon colorectal carcinoma HCT116 (ATCC® CCL-247™), colon adenocarcinoma COLO205 (ATCC® CCL-222™), colorectal adenocarcinoma SW620 (ATCC® CCL-227™), colorectal adenocarcinoma grade IV LoVo (ATCC® CCL-229™), hepatocellular carcinoma Hep 3b (ATCC® HB-8064™), endometrium adenocarcinoma HEC1A (ATCC® HTB-112™), Ishikawa (99040201; Sigma–Aldrich Sigma, St. Louis, MO, USA), cervical adenocarcinoma cells HeLa (ATCC® CCL-2™), lung epithelial carcinoma A549 (ATCC® CRM-CCL-185™), breast epithelial adenocarcinoma cell positive for estrogen and progesterone receptors MCF7 (ATCC® HTB-22™) and negative for expression of estrogen receptor HCC38 (ATCC® CRL-2314™), acute promyelocytic leukemia HL-60 (ATCC® CCL-240™), skin melanoma WM115 (ATCC® CRL-1676™), and 1 suspension cancer cell line: acute lymphoblastic leukemia NALM6 (purchased from the German Collection of Microorganisms and Cell Cultures). HT29, NALM6, HCC-38 and HL-60 cells were cultured in RPMI 1640 medium (Thermo Fisher Scientific, Waltham, MA, USA) supplemented with 10% fetal bovine serum and antibiotic (gentamicin 25 μg ml^−1) (Gibco, Grand Island, New York, NY, USA). For the remaining tumor cell lines, Dulbecco’s minimal essential medium (DMEM, Lonza, Visp, Switzerland) supplemented with 10% fetal bovine serum and antibiotic instead of RPMI 1640 was used. In addition, Human Microvascular Endothelial Cells (HMEC1), which were obtained from the American Type Culture Collection (Manassas, VA, USA), were used as a model of normal cells. HMEC-1 were cultured in MCDB131 medium (Corning Life Sciences, Corning, NY, USA), supplemented with 10% fetal bovine serum, 10 ng/mL Epidermal Growth Factor (Millipore, Burlington, MA, USA) and 10 mM glutamine (Corning Life Sciences). All cells were grown at 37 °C in humidified atmosphere of 5% CO2 in air. The exponential growth of cells was maintained by regular passaging at 90% confluence three times a week using 0.025% trypsin/EDTA (Gibco, Grand Island, New York, NY, USA).
(§2) The cytotoxicity was tested by a standard MTT [3-(4,5-dimethylthiazol-2-yl)-2,5-diphenyltetrazolium bromide] (Sigma, St. Louis, MO, USA) microplate cell viability assay. The anticancer activity of the investigated compounds was evaluated in vitro on the basis of their ability to inhibit the proliferation of various cancer cells. Exponentially growing cells were seeded a day before the experiment into a 96-well microplate (Nunc, Roskilde, Denmark) at a density up to 6–8 × 10^3 cells/mL (depending on the cell line) and exposed to the test compounds at a wide range of concentrations for 48 h. Subsequently, various concentrations of the studied compounds (10^−7–10^−5 M) freshly prepared in DMSO (final concentration of <0.1% DMSO) and diluted with complete culture medium were added. After 48 h incubation, the cells were immediately subjected to a cell viability assay. At this time point, the number of viable cells in each well was estimated by the MTT test. Briefly, 50 µL (5 mg/mL final concentration) of MTT was added to each microplate well. This procedure was then followed by a three- to four-hour incubation at 37 °C. After incubation, MTT solution was replaced with 100 µL DMSO/well, which solubilized the formazan crystals formed by the dehydrogenases of metabolically active cells. Purple formazan absorbance was measured spectrophotometrically at 570 nm.
Consider `Cc1cc(C)n(C(N)=S)n1.Cc1ccc(C(C)C)cc1.F[P-](F)(F)(F)(F)F.[Cl-].[Ru+2]` [3a], for which the IC50 (usually the concentration that inhibits the measured activity by half) stood at 123 ± 3.9 µM.

For a further data set, the system named is NALM6. Nature of the data set: MTT cytotoxicity, NALM6. It is filed as cell-based, human. As to conditions: 48 h incubation, read-out: Cytotoxic effect, IC50. The protocol:
as §1, §2
Consider `Cc1cc(C)n(C(N)=S)n1.Cc1ccc(C(C)C)cc1.F[P-](F)(F)(F)(F)F.[Cl-].[Ru+2]` [3a], for which the IC50 turned out to be 46.1 ± 5.1 µM.

In another data set the test system is MCF7. Put plainly: MTT cytotoxicity, MCF7. It is filed as cell-based, human. As to conditions: 48 h incubation, read-out: Cytotoxic effect, IC50. The protocol:
as §1, §2
For the molecule `Cc1cc(C)n(C(N)=S)n1.Cc1ccc(C(C)C)cc1.F[P-](F)(F)(F)(F)F.[Cl-].[Ru+2]` [3a], the IC50 was over 200 µM.

The next data set has as its system Hep 3b. Nature of the data set: MTT cytotoxicity, Hep 3b. It is filed as cell-based, human. As to conditions: 48 h incubation, read-out: Cytotoxic effect, IC50. The method, then:
as §1, §2
As for `Cc1cc(C)n(C(N)=S)n1.Cc1ccc(C(C)C)cc1.F[P-](F)(F)(F)(F)F.[Cl-].[Ru+2]` [3a], the IC50 is 55.3 ± 2.6 µM.

A further data set concerns Caco2. Nature of the data set: MTT cytotoxicity, Caco2. It is filed as cell-based, human. The following applies: 48 h incubation, read-out: Cytotoxic effect, IC50. The method, then:
as §1, §2
As to `Cc1cc(C)n(C(N)=S)n1.Cc1ccc(C(C)C)cc1.F[P-](F)(F)(F)(F)F.[Cl-].[Ru+2]` [3a], the IC50 amounted to 107 ± 8.4 µM.

In another data set the test system is SW620. Put plainly: MTT cytotoxicity, SW620. It is filed as cell-based, human. As to conditions: 48 h incubation, read-out: Cytotoxic effect, IC50. The protocol: as §1, §2
Turning to `Cc1cc(C)n(C(N)=S)n1.Cc1ccc(C(C)C)cc1.F[P-](F)(F)(F)(F)F.[Cl-].[Ru+2]` [3a], the IC50 turned out to be 63.9 ± 2.7 µM.

Another data set has as its system A549. Nature of the data set: MTT cytotoxicity, A549. As to conditions: 48 h incubation, read-out: Cytotoxic effect, IC50. It is filed as cell-based, human. The protocol: as §1, §2
For the molecule `Cc1cc(C)n(C(N)=S)n1.Cc1ccc(C(C)C)cc1.F[P-](F)(F)(F)(F)F.[Cl-].[Ru+2]` [3a], the IC50 was over 200 µM.

The subject of another data set is LoVo. Put plainly: MTT cytotoxicity, LoVo. It is filed as cell-based, human. As to conditions: 48 h incubation, read-out: Cytotoxic effect, IC50. The method, then:
as §1, §2
For `Cc1cc(C)n(C(N)=S)n1.Cc1ccc(C(C)C)cc1.F[P-](F)(F)(F)(F)F.[Cl-].[Ru+2]` [3a], the IC50 worked out at 127 ± 3.7 µM.

A further data set concerns HEC1A. Nature of the data set: MTT cytotoxicity, HEC1A. It is filed as cell-based, human. The following applies: 48 h incubation, read-out: Cytotoxic effect, IC50. The method, then:
as §1, §2
With `Cc1cc(C)n(C(N)=S)n1.Cc1ccc(C(C)C)cc1.F[P-](F)(F)(F)(F)F.[Cl-].[Ru+2]` [3a], the IC50 was 77.2 ± 4.4 µM.

The next data set deals with Ishikawa. Nature of the data set: MTT cytotoxicity, Ishikawa. It is filed as cell-based, human. As to conditions: 48 h incubation, read-out: Cytotoxic effect, IC50. The method, then: as §1, §2
Consider `Cc1cc(C)n(C(N)=S)n1.Cc1ccc(C(C)C)cc1.F[P-](F)(F)(F)(F)F.[Cl-].[Ru+2]` [3a], for which the half-maximal inhibitory concentration (IC50) is over 200 µM.

A further data set concerns HCC38. Put plainly: MTT cytotoxicity, HCC38. It is filed as cell-based, human. The following applies: 48 h incubation, read-out: Cytotoxic effect, IC50. The protocol: as §1, §2
As for `Cc1cc(C)n(C(N)=S)n1.Cc1ccc(C(C)C)cc1.F[P-](F)(F)(F)(F)F.[Cl-].[Ru+2]` [3a], the IC50 is over 200 µM.

In another data set the test system is HL60. Put plainly: MTT cytotoxicity, HL60. It is filed as cell-based, human. As to conditions: 48 h incubation, read-out: Cytotoxic effect, IC50. The protocol:
as §1, §2
As for `Cc1cc(C)n(C(N)=S)n1.Cc1ccc(C(C)C)cc1.F[P-](F)(F)(F)(F)F.[Cl-].[Ru+2]` [3a], the IC50 stood at 79.7 ± 7.2 µM.

The test system of another data set is Colo205. Put plainly: MTT cytotoxicity, Colo205. It is filed as cell-based, human. The following applies: 48 h incubation, read-out: Cytotoxic effect, IC50. The protocol:
as §1, §2
Turning to `Cc1cc(C)n(C(N)=S)n1.Cc1ccc(C(C)C)cc1.F[P-](F)(F)(F)(F)F.[Cl-].[Ru+2]` [3a], the IC50 turned out to be 59.6 ± 3.4 µM.

Test system in a further data set: not listed separately
Put plainly: Lipophilicity by RP-TLC. It is filed as physicochemical. On the set-up: key: RM = log(1/Rf − 1), Rf = a/b. The following applies: eluent AcCN: H2O at 30–70% v/v, 22 °C. The protocol:
All the experimental solutions of standard substances (0.1 mg/mL) were prepared by dissolving ligands (1a–1d) or ruthenium complexes (2a/3a–2d/3d) in ethanol. Commercially-available octadecyl-modified silica aluminum sheets (20 × 20 cm) were cut into 5 × 10 cm plates. The plates were manually spotted with 1.0 μL of freshly prepared solutions using automatic pipets, 5 mm from each edge. The chromatograms for all compounds (1a/2a/3a–1d/2d/3d) were developed using a horizontal developing chamber and the solvent migration distance was about 4.5 cm. The plates were visually inspected under UV light at 254 nm. Each zone was clearly marked and its distance was manually measured. The RP-TLC analyses of lipophilicity were performed at ambient temperature (22 °C). In this experiment, all measurements were performed in triplicate and the obtained results were used in further calculations. The acetonitrile and water mixtures for ligands 1a–1d and arene–ruthenium(II) complexes 2a/3a–2d/3d were used as mobile phases, with […] content increasing in the range of 30–70% v/v, at 5% intervals. Values of the chromatographic retention coefficient Rf (as shown Formula (1)) and RM (as shown Formula (2)), based on received chromatograms, were calculated and converted as follows:(1) Rf=a/b (2) RM=log1/Rf−1
`Cc1cc(C)n(C(N)=S)n1.Cc1ccc(C(C)C)cc1.F[P-](F)(F)(F)(F)F.[Cl-].[Ru+2]` [3a]: the “Lipophilicity, RM” value is reported as 2.55.

In the next data set the test system is Hela. Nature of the data set: MTT cytotoxicity, Hela. The following applies: 48 h incubation, read-out: Cytotoxic effect, IC50. It is filed as cell-based, human. The protocol: as §1, §2
For `Cc1cc(C)n(C(N)=S)n1.Cc1ccc(C(C)C)cc1.F[P-](F)(F)(F)(F)F.[Cl-].[Ru+2]` [3a], the IC50 turned out to be 98.7 ± 7.4 µM.

The subject of another data set is human microvascular endothelial cell line HMEC1. Nature of the data set: MTT cytotoxicity, normal endothelial cells HMEC1. The following applies: HMEC1 normal endothelial cells, 48 h incubation, read-out: Cytotoxic effect, IC50. It is filed as cell-based. The protocol: as §1, §2
`Cc1cc(C)n(C(N)=S)n1.Cc1ccc(C(C)C)cc1.F[P-](F)(F)(F)(F)F.[Cl-].[Ru+2]` [3a]: the IC50 is over 200 µM.

Staying with this data set, now noted: HMEC-1 vs cancer cells.
For the molecule `Cc1cc(C)n(C(N)=S)n1.Cc1ccc(C(C)C)cc1.F[P-](F)(F)(F)(F)F.[Cl-].[Ru+2]` [3a], the “IC50 for HMEC-1 higher than for cancer cells (selectivity)” value is reported as 3–5 times.

Another data set relates to WM115. Nature of the data set: MTT cytotoxicity, WM115. It is filed as cell-based, human. As to conditions: 48 h incubation, read-out: Cytotoxic effect, IC50. The method, then: as §1, §2
In the case of `Cc1cc(C)n(C(N)=S)n1.Cc1ccc(C(C)C)cc1.F[P-](F)(F)(F)(F)F.[Cl-].[Ru+2]` [3a], the IC50 amounted to 64.1 ± 5.1 µM.
